Test system: HIV-1 LAI
Assay: microbe, parasite or virus in culture
Conditions: for Combination Indices at % HIV Inhibition (Confidence Interval) 50% / Combination Indices at % HIV Inhibition (Confidence Interval) 75% / Combination Indices at % HIV Inhibition (Confidence Interval) 90% / Overall Result (combined anti-HIV effect): Compound 1 + named drug; for Combination Indices at % HIV Inhibition (Confidence Interval) 50% / Combination Indices at % HIV Inhibition (Confidence Interval) 75% / Combination Indices at % HIV Inhibition (Confidence Interval) 90%: 95% confidence interval in parentheses; for Overall Result (combined anti-HIV effect): all ratios, MT-2 cells, HIV-1 LAI; for EC50: Human immunodeficiency virus 1, MT2, 120 h
Description: Virus and cell lines. The T-cell lines, MT-2 and PM-1 were obtained through the AIDS Research and Reference Reagent Program, NIAID, and were contributed by Dr. D. Richman and Dr. R. Gallo, respectively. Both cell lines were cultured in RPMI 1640 medium supplemented with 10% fetal bovine serum, 2 mM L-glutamine and sub-cultured twice a week. The LAI strain of HIV-1 was obtained from the Fred Hutchinson Cancer Research Center, and the Bal strain was from NIH. Both virus stocks were amplified and titered in MT-2 cells (LAI) and PM-1 cells (Bal) using a virus infectivity assay.
Drug Susceptibility and Cytotoxicity Assays. For drug susceptibility assays, MT-2 cells were infected with HIV-1 LAI (or PM-1 cells with HIV-1 Bal) at an MOI of 0.005, and seeded into 96-well microtiter plates (0.1×10^6 cells/ml) containing serial dilutions of test compounds. […] Each drug ratio consisted of an array of 3-fold serial dilutions, and was performed in quadruplicate. The plates were incubated at 37° C./5% CO2. The MT-2 cells infected with HIV-1 LAI were incubated for 5 days. On day-five post-infection, 20 μl from each well was harvested and quantitated by a reverse transcriptase (RT) assay, or in samples involving non-nucleoside RT inhibitors, an MTS assay. The PM-1 cells infected with HIV-1 Bal and used for studying the combinations with CCR5 inhibitors were incubated for six days. On day-six post-infection, 20 μl from each well was harvested, 20- and 50-fold diluted and quantitated by p24 assay. Cytotoxicity assays were performed using uninfected cells, exposed to the same drug combinations, and incubated for six days. Cell viability was determined by an MTS assay. The CC50 values were calculated by using the exponential form of the median effect equation as mentioned below for calculation of EC50.
Analysis of Drug Combination Effects. For determination of CI values, drugs were diluted in a fixed ratio and multiple ratios were analyzed. The drug serial dilutions spanned a range of concentrations near the EC50 value of each compound, so that equivalent antiviral activities could be compared. Concentration-response curves were estimated for each individual drug and every combination using the median-effect equation. The equation was fit using a nonlinear regression routine (Proc Nlin) in PC SAS version 8.01 (SAS Institute Inc., SAS Version 8.01, Cary, N.C.: SAS Institute Inc., 1990).
In this equation, Fa stands for “fraction affected,” and represents the fraction of the viral load that has been inactivated. […] ED50 is drug concentration that is expected to reduce the amount of virus by 50%, and m is a parameter that reflects the slope of the concentration-response curve.
To assess antiviral effects of different drug combination treatments, combination indices (CIs) were calculated according to Chou and Rideout. The combination index was computed as CI=[D]1/[Dm]1+[D]2/[Dm]2
In this equation [Dm]1 and [Dm]2 are the concentrations of drugs that would individually produce a specific level of effect, while [D]1 and [D]2 are the concentrations of drugs in combination that would produce the same level of effect.
Theoretically, additivity is implied if the CI is equal to one, synergy if the CI is less than one, and antagonism if the CI is greater than one. […] At best, we can construct a range that contains the likely values for the CI, given the noise in the data. In this report, these ranges are reported in parentheses next to each point estimate of the CI. […] If the range fell entirely above 1.0, we would infer antagonistic behavior. If the range were to include 1.0, we would infer additivity.
In carrying out the combination experiments below, the EC50 for Compound 1 and each comparator compound was determined during the course of each study, and used in the subsequent data analysis.

[1] = EC50 ratio 1:1 (Compound 1:comparator)
[2] = EC50 ratio 1:2.5 (Compound 1:comparator)
[3] = EC50 ratio 2.5:1 (Compound 1:comparator)

SMILES	Combination Indices at % HIV Inhibition (Confidence Interval) 50% [1]	Combination Indices at % HIV Inhibition (Confidence Interval) 75% [1]	Combination Indices at % HIV Inhibition (Confidence Interval) 90% [1]	Combination Indices at % HIV Inhibition (Confidence Interval) 50% [2]	Combination Indices at % HIV Inhibition (Confidence Interval) 75% [2]	Combination Indices at % HIV Inhibition (Confidence Interval) 90% [2]	Combination Indices at % HIV Inhibition (Confidence Interval) 50% [3]	Combination Indices at % HIV Inhibition (Confidence Interval) 75% [3]	Combination Indices at % HIV Inhibition (Confidence Interval) 90% [3]	Overall Result (combined anti-HIV effect)	EC50	Overall Result (combined anti-HIV effect) (listed as nevapiradine)
CC(C)(C)NC(=O)[C@@H]1CN(Cc2cccnc2)CCN1C[C@@H](O)C[C@@H](Cc1ccccc1)C(=O)N[C@H]1c2ccccc2C[C@H]1O [Indinavir, indinavir]	0.41 (0.26, 0.56)	0.69 (0.34, 1.04)	1.59 (0.29, 2.90)	0.30 (0.18, 0.41)	0.62 (0.32, 0.92)	1.96 (0.29, 3.64)	0.05 (0.03, 0.06)	0.16 (0.13, 0.20)	0.68 (0.39, 0.98)	Additive-	3 nM	–
Nc1ccn([C@@H]2CS[C@H](CO)O2)c(=O)n1 [Lamivudine, lamivudine]	0.75 (0.45, 1.05)	0.79 (0.35, 1.23)	0.90 (0.11, 1.69)	0.13 (0.10, 0.16)	0.21 (0.16, 0.27)	0.39 (0.21, 0.58)	0.14 (0.10, 0.17)	0.26 (0.18, 0.33)	0.49 (0.22, 0.75)	–	–	–
Cc1cccc(C)c1OCC(=O)N[C@@H](Cc1ccccc1)[C@@H](O)C[C@H](Cc1ccccc1)NC(=O)[C@H](C(C)C)N1CCCNC1=O [Lopinavir, lopinavir]	0.47 (0.38, 0.56)	0.66 (0.48, 0.84)	–	0.89 (0.73, 1.05)	0.90 (0.67, 1.13)	1.00 (0.60, 1.40)	0.29 (0.25, 0.33)	0.37 (0.30, 0.44)	0.51 (0.37, 0.65)	Additive-	4 nM	–
Cc1c(O)cccc1C(=O)N[C@@H](CSc1ccccc1)[C@H](O)CN1C[C@H]2CCCC[C@H]2C[C@H]1C(=O)NC(C)(C)C [Nelfinavir, nelfinavir]	0.39 (0.34, 0.44)	0.47 (0.39, 0.56)	0.58 (0.41, 0.74)	0.41 (0.32, 0.50)	0.81 (0.57, 1.05)	1.61 (0.84, 2.37)	0.12 (0.09, 0.15)	0.32 (0.22, 0.42)	0.87 (0.38, 1.35)	Additive-	3 nM	–
Cc1ccnc2c1NC(=O)c1cccnc1N2C1CC1 [Nevirapine, nevirapine]	0.19 (0.15, 0.23)	0.22 (0.16, 6.28)	0.26 (0.15, 0.38)	0.48 (0.35, 0.62)	0.66 (0.40, 0.92)	0.92 (0.35, 1.49)	0.58 (0.48, 0.67)	0.99 (0.76, 1.22)	1.71 (1.09, 2.33)	Additive-	107 nM	additive-synergystic
CC(C)c1nc(CN(C)C(=O)N[C@H](C(=O)N[C@@H](Cc2ccccc2)C[C@H](O)[C@H](Cc2ccccc2)NC(=O)OCc2cncs2)C(C)C)cs1 [Ritonavir, ritonavir]	0.60 (0.49, 0.72)	0.61 (0.45, 0.77)	0.70 (0.41, 0.99)	0.54 (0.45, 0.63)	0.58 (0.44, 0.71)	0.73 (0.46, 1.00)	0.23 (0.20, 0.26)	0.20 (0.17, 0.24)	0.19 (0.14, 0.24)	Synergistic	7 nM	–
CC(C)(C)NC(=O)[C@@H]1C[C@@H]2CCCC[C@@H]2CN1C[C@@H](O)[C@H](Cc1ccccc1)NC(=O)[C@H](CC(N)=O)NC(=O)c1ccc2ccccc2n1 [Saquinavir, saquinavir]	0.31 (0.28, 0.33)	0.31 (0.28, 0.35)	0.32 (0.26, 0.38)	0.60 (0.52, 0.67)	0.67 (0.56, 0.79)	0.77 (0.56, 0.97)	0.39 (0.33, 0.45)	0.59 (0.46, 0.72)	0.90 (0.58, 1.22)	Synergistic	5 nM	–
Cc1cn([C@H]2C=C[C@@H](CO)O2)c(=O)[nH]c1=O [Stavudine, stavudine]	0.52 (0.40, 0.64)	0.60 (0.41, 0.80)	0.75 (0.36, 1.14)	0.38 (0.31, 0.45)	0.37 (0.28, 0.46)	0.40 (0.23, 0.56)	0.69 (0.51, 0.88)	0.78 (0.49, 1.07)	0.92 (0.36, 1.48)	Moderate-	72 nM	–

Reference: US7776863B2, “Methods of treating HIV infection” (priority 2004, dated 2010)
